Measurements as given in paper PMC3914206.

What was measured:
panel of 442 kinases [1] = target: T1, panel of 442 kinases (Homo sapiens, UniProt Q12852); assay type: binding; details: Compound Concentration 10 µM
T1 construct: purchased KINOMEscan
T1 sequence (Q12852 1-859): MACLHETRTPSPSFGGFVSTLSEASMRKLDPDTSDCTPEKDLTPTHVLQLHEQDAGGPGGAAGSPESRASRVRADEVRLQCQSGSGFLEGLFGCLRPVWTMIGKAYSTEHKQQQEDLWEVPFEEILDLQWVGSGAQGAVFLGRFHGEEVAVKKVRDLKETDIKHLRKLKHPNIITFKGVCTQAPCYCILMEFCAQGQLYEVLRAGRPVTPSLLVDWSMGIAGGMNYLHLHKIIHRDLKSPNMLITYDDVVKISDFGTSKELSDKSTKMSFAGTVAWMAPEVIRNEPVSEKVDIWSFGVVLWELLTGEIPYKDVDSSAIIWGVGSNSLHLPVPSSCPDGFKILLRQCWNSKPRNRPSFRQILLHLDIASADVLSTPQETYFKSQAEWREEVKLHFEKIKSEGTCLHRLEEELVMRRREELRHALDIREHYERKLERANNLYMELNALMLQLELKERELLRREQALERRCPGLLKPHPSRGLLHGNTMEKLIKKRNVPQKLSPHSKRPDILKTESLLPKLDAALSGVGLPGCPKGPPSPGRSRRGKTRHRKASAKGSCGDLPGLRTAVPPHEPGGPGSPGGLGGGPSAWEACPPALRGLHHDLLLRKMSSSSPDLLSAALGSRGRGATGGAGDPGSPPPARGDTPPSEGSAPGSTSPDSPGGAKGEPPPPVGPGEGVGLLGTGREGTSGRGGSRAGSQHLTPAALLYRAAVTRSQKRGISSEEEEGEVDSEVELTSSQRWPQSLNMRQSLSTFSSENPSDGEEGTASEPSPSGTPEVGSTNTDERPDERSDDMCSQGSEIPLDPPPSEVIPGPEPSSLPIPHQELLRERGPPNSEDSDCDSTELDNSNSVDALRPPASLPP
From the text: (§1) We assessed the selectivity of members of this scaffold using the KINOMEscan methodology across a near comprehensive panel of 442 kinases [[18,27]].

panel of 442 kinases [2] = target: T2, panel of 442 kinases (Homo sapiens, UniProt P10721, D816V); assay type: binding; details: Compound Concentration 10 µM
T2 construct: purchased KINOMEscan
From the text: as §1

T2 sequence (P10721 26-976 D816V): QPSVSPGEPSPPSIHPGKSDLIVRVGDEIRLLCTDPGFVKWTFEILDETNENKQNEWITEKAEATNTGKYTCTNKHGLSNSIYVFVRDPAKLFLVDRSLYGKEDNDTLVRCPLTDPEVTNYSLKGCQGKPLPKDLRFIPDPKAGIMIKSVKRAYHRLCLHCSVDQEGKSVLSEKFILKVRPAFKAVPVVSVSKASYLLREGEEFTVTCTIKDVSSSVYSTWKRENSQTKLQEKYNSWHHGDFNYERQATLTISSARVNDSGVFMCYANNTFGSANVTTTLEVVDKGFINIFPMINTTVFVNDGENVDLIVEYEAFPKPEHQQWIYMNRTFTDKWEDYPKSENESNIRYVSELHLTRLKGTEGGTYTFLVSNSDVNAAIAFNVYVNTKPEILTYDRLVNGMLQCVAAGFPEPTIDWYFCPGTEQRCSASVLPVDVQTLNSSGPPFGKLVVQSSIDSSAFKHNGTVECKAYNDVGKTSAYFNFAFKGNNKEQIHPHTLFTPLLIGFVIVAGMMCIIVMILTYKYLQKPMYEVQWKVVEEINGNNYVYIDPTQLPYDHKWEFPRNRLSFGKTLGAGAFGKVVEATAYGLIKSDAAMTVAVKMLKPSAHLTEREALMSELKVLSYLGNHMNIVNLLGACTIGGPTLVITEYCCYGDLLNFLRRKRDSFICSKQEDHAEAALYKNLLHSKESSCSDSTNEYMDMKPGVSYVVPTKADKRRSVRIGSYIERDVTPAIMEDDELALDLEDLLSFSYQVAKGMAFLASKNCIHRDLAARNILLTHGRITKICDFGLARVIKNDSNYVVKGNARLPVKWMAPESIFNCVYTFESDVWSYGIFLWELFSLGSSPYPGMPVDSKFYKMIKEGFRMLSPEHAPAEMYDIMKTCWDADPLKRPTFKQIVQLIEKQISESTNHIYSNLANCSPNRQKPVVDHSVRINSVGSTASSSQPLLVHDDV

Structure (SMILES)	KINOMEscan: DLK (panel of 442 kinases [1])	KINOMEscan: KIT(D816V) (panel of 442 kinases [2])
COc1cc(C(=O)N2CCC(N3CCN(C)CC3)CC2)ccc1Nc1ncc2c(n1)N(C1CCCC1)c1ccccc1C(=O)N2C [Compound 25, 11-cyclopentyl-2-((2-methoxy-4-(4-(4-methylpiperazin-1-yl)piperidine-1-carbonyl)phenyl)amino)-5-methyl-5H-benzo[e]pyrimido[5,4-b][1,4]diazepin-6(11H)-one]	62	92
COc1cc(C(=O)N2CCC(N3CCN(C)CC3)CC2)ccc1Nc1ncc2c(n1)N1CCc3cccc(c31)C(=O)N2C [Compound 24]	78	–
COc1cc(C(=O)N2CCC(N3CCN(C)CC3)CC2)ccc1Nc1ncc2c(n1)N(C)c1ccccc1C(=O)N2C [15 (LRRK2-IN-1)]	81	72
CCOc1cc(C(=O)N2CCC(N3CCN(C)CC3)CC2)ccc1Nc1ncc2c(n1)N(C1CCCC1)c1ccccc1C(=O)N2C [Compound 26]	100	96
